According to ChEMBL document CHEMBL5543142, “Discovery of YFJ-36: Design, Synthesis, and Antibacterial Activities of Catechol-Conjugated β-Lactams against Gram-Negative Bacteria” (J Med Chem, 2024):

How the values were obtained:
Format in all cases: functional
Details in all cases: time 18-20 hrs
Escherichia coli [1] = experiment: Antibacterial activity against ESBL-producing multidrug-resistant Escherichia coli clinical isolate 14-1 assessed as inhibition of bacterial growth incubated for 18 to 20 hrs by two fold serial dilution assay
Acinetobacter baumannii [2] = experiment: Antibacterial activity against OXA-23 producing multidrug-resistant Acinetobacter baumannii clinical isolate 15-5 assessed as inhibition of bacterial growth incubated for 18 to 20 hrs by two fold serial dilution assay
Pseudomonas aeruginosa [3] = experiment: Antibacterial activity against IMP-4 producing multidrug-resistant Pseudomonas aeruginosa clinical isolate 15-4 assessed as inhibition of bacterial growth incubated for 18 to 20 hrs by two fold serial dilution assay
Pseudomonas aeruginosa [4] = experiment: Antibacterial activity against IMP-4 producing multidrug-resistant Pseudomonas aeruginosa clinical isolate 15-1 assessed as inhibition of bacterial growth incubated for 18 to 20 hrs by two fold serial dilution assay
Klebsiella pneumoniae [5] = experiment: Antibacterial activity against KPC-2 producing multidrug-resistant Klebsiella pneumoniae clinical isolate 15-1 assessed as inhibition of bacterial growth incubated for 18 to 20 hrs by two fold serial dilution assay
Klebsiella pneumoniae [6] = experiment: Antibacterial activity against KPC-2 producing multidrug-resistant Klebsiella pneumoniae clinical isolate 15-2 assessed as inhibition of bacterial growth incubated for 18 to 20 hrs by two fold serial dilution assay
Acinetobacter baumannii [7] = experiment: Antibacterial activity against OXA-23 producing multidrug-resistant Acinetobacter baumannii clinical isolate 15-3 assessed as inhibition of bacterial growth incubated for 18 to 20 hrs by two fold serial dilution assay
Acinetobacter baumannii [8] = experiment: Antibacterial activity against OXA-23 producing multidrug-resistant Acinetobacter baumannii clinical isolate 15-2 assessed as inhibition of bacterial growth incubated for 18 to 20 hrs by two fold serial dilution assay
Acinetobacter baumannii [9] = experiment: Antibacterial activity against OXA-23 producing multidrug-resistant Acinetobacter baumannii clinical isolate 15-4 assessed as inhibition of bacterial growth incubated for 18 to 20 hrs by two fold serial dilution assay
Escherichia coli [10] = experiment: Antibacterial activity against ESBL-producing multidrug-resistant Escherichia coli clinical isolate 14-4 assessed as inhibition of bacterial growth incubated for 18 to 20 hrs by two fold serial dilution assay
Klebsiella pneumoniae [11] = experiment: Antibacterial activity against KPC-2 producing multidrug-resistant Klebsiella pneumoniae clinical isolate 15-5 assessed as inhibition of bacterial growth incubated for 18 to 20 hrs by two fold serial dilution assay
Escherichia coli [12] = experiment: Antibacterial activity against ESBL-producing multidrug-resistant Escherichia coli clinical isolate 14-2 assessed as inhibition of bacterial growth incubated for 18 to 20 hrs by two fold serial dilution assay
Pseudomonas aeruginosa [13] = experiment: Antibacterial activity against IMP-4 producing multidrug-resistant Pseudomonas aeruginosa clinical isolate 15-5 assessed as inhibition of bacterial growth incubated for 18 to 20 hrs by two fold serial dilution assay
Klebsiella pneumoniae [14] = experiment: Antibacterial activity against KPC-2 producing multidrug-resistant Klebsiella pneumoniae clinical isolate 15-3 assessed as inhibition of bacterial growth incubated for 18 to 20 hrs by two fold serial dilution assay
Pseudomonas aeruginosa [15] = experiment: Antibacterial activity against Pseudomonas aeruginosa ATCC 27853 assessed as inhibition of bacterial growth incubated for 18 to 20 hrs by two fold serial dilution assay
Acinetobacter baumannii [16] = experiment: Antibacterial activity against OXA-23 producing multidrug-resistant Acinetobacter baumannii clinical isolate 15-1 assessed as inhibition of bacterial growth incubated for 18 to 20 hrs by two fold serial dilution assay
Escherichia coli [17] = experiment: Antibacterial activity against Escherichia coli ATCC35218 assessed as inhibition of bacterial growth incubated for 18 to 20 hrs by two fold serial dilution assay
Pseudomonas aeruginosa [18] = experiment: Antibacterial activity against IMP-4 producing multidrug-resistant Pseudomonas aeruginosa clinical isolate 17-13 assessed as inhibition of bacterial growth incubated for 18 to 20 hrs by two fold serial dilution assay
Pseudomonas aeruginosa [19] = experiment: Antibacterial activity against IMP-4 producing multidrug-resistant Pseudomonas aeruginosa clinical isolate 19-17 assessed as inhibition of bacterial growth incubated for 18 to 20 hrs by two fold serial dilution assay
Pseudomonas aeruginosa [20] = experiment: Antibacterial activity against IMP-4 producing multidrug-resistant Pseudomonas aeruginosa clinical isolate 17-1 assessed as inhibition of bacterial growth incubated for 18 to 20 hrs by two fold serial dilution assay
Pseudomonas aeruginosa [21] = experiment: Antibacterial activity against IMP-4 producing multidrug-resistant Pseudomonas aeruginosa clinical isolate 19-5 assessed as inhibition of bacterial growth incubated for 18 to 20 hrs by two fold serial dilution assay
Pseudomonas aeruginosa [22] = experiment: Antibacterial activity against IMP-4 producing multidrug-resistant Pseudomonas aeruginosa clinical isolate 19-1 assessed as inhibition of bacterial growth incubated for 18 to 20 hrs by two fold serial dilution assay
Acinetobacter baumannii [23] = experiment: Antibacterial activity against OXA-23 producing multidrug-resistant Acinetobacter baumannii clinical isolate 17-2 assessed as inhibition of bacterial growth incubated for 18 to 20 hrs by two fold serial dilution assay

SMILES | MIC (Escherichia coli [1]) [µg/mL] | MIC (Acinetobacter baumannii [2]) [µg/mL] | MIC (Pseudomonas aeruginosa [3]) [µg/mL] | MIC (Pseudomonas aeruginosa [4]) [µg/mL] | MIC (Klebsiella pneumoniae [5]) [µg/mL] | MIC (Klebsiella pneumoniae [6]) [µg/mL] | MIC (Acinetobacter baumannii [7]) [µg/mL] | MIC (Acinetobacter baumannii [8]) [µg/mL] | MIC (Acinetobacter baumannii [9]) [µg/mL] | MIC (Escherichia coli [10]) [µg/mL] | MIC (Klebsiella pneumoniae [11]) [µg/mL] | MIC (Escherichia coli [12]) [µg/mL] | MIC (Pseudomonas aeruginosa [13]) [µg/mL] | MIC (Klebsiella pneumoniae [14]) [µg/mL] | MIC (Pseudomonas aeruginosa [15]) [µg/mL] | MIC (Acinetobacter baumannii [16]) [µg/mL] | MIC (Escherichia coli [17]) [µg/mL] | MIC (Pseudomonas aeruginosa [18]) [µg/mL] | MIC (Pseudomonas aeruginosa [19]) [µg/mL] | MIC (Pseudomonas aeruginosa [20]) [µg/mL] | other results
CC(C)(O/N=C(\C(=O)N[C@@H]1C(=O)N2C(C(=O)O)=C(CSCCOCCNC(=O)c3ccc(O)c(O)c3Cl)CS[C@H]12)c1csc(N)n1)C(=O)O.O=C(O)C(F)(F)F | 0.25 | 32 | 1 | 1 | 8 | 4 | 32 | 32 | 64 | 32 | 4 | 2 | 2 | 8 | 4 | 32 | – | – | – | – | –
Nc1nc(/C(=N/OC(C(=O)O)C2CCC2)C(=O)N[C@@H]2C(=O)N3C(C(=O)O)=C(CSCCNC(=O)c4ccc(O)c(O)c4Cl)CS[C@H]23)cs1.O=C(O)C(F)(F)F (stereo partly specified) | 0.5 | 64 | – | – | 8 | 4 | 16 | 32 | 32 | 0.25 | 4 | 4 | – | 16 | – | 32 | 0.125 | 1 | 0.5 | 8 | –
CC(C)C(O/N=C(\C(=O)N[C@@H]1C(=O)N2C(C(=O)O)=C(CSCCNC(=O)c3ccc(O)c(O)c3Cl)CS[C@H]12)c1csc(N)n1)C(=O)O.O=C(O)C(F)(F)F (stereo partly specified) | 0.06 | 4 | 4 | 2 | 0.5 | 0.5 | 4 | 4 | 4 | 0.5 | 0.25 | 2 | 4 | 0.5 | 8 | 8 | – | – | – | – | –
CC(C)(O/N=C(\C(=O)N[C@@H]1C(=O)N2C(C(=O)O)=C(CS[C@@H]3C[C@H]4CC[C@@H](C3)N4C(=O)c3ccc(O)c(O)c3Cl)CS[C@H]12)c1csc(N)n1)C(=O)O.O=C(O)C(F)(F)F | 0.25 | > 64 | 16 | 16 | 2 | 1 | 64 | 64 | > 64 | 16 | 1 | 16 | 16 | 64 | 2 | 64 | – | – | – | – | –
Nc1nc(/C(=N/OC(C(=O)O)C2CCCC2)C(=O)N[C@@H]2C(=O)N3C(C(=O)O)=C(CSCCNC(=O)c4ccc(O)c(O)c4Cl)CS[C@H]23)cs1.O=C(O)C(F)(F)F (stereo partly specified) | 0.25 | 32 | – | – | 2 | 2 | 16 | 16 | 16 | 0.25 | 2 | 2 | – | 4 | – | 32 | 0.25 | 8 | 1 | 1 | –
CC(C)C(O/N=C(\C(=O)N[C@@H]1C(=O)N2C(C(=O)O)=C(CS[C@H]3CC[C@@H](NC(=O)c4ccc(O)c(O)c4Cl)CC3)CS[C@H]12)c1csc(N)n1)C(=O)O.O=C(O)C(F)(F)F (stereo partly specified) | 0.125 | 16 | 2 | 8 | 2 | 2 | 32 | 16 | 16 | 16 | 2 | 2 | 8 | 4 | 2 | 32 | – | – | – | – | –
Cc1sc(N)nc1/C(=N/OC(C(=O)O)C1CCC(F)(F)CC1)C(=O)N[C@@H]1C(=O)N2C(C(=O)O)=C(CSCCNC(=O)c3ccc(O)c(O)c3Cl)CS[C@H]12.O=C(O)C(F)(F)F (stereo partly specified) | 0.5 | 2 | – | – | 2 | 4 | 4 | 2 | 4 | 0.5 | 2 | 1 | – | 8 | – | 4 | 0.25 | 0.25 | 0.25 | – | MIC (Pseudomonas aeruginosa [21]): 1 µg/mL; MIC (Pseudomonas aeruginosa [22]): 8 µg/mL; MIC (Acinetobacter baumannii [23]): 0.125 µg/mL
Nc1nc(/C(=N/OC2(C(=O)O)CCC2)C(=O)N[C@@H]2C(=O)N3C(C(=O)O)=C(CSCCNC(=O)c4ccc(O)c(O)c4Cl)CS[C@H]23)cs1.O=C(O)C(F)(F)F | 0.25 | 32 | 1 | 1 | 2 | 4 | 32 | 32 | 32 | 32 | 4 | 2 | 2 | 8 | 2 | 32 | – | – | – | – | –
Nc1nc(/C(=N/OC(C(=O)O)C2CC2)C(=O)N[C@@H]2C(=O)N3C(C(=O)O)=C(CSCCNC(=O)c4ccc(O)c(O)c4Cl)CS[C@H]23)cs1.O=C(O)C(F)(F)F (stereo partly specified) | 0.5 | 64 | – | – | 16 | 4 | 64 | 64 | 64 | 0.5 | 4 | 4 | – | 64 | – | 32 | 0.25 | 1 | 1 | 1 | –
C[C@@](O/N=C(\C(=O)N[C@@H]1C(=O)N2C(C(=O)O)=C(CSCCNC(=O)c3ccc(O)c(O)c3Cl)CS[C@H]12)c1csc(N)n1)(C(=O)O)C(F)(F)F.O=C(O)C(F)(F)F | 0.125 | 16 | – | – | 1 | 1 | 32 | 32 | 16 | 0.5 | 1 | 0.5 | – | 2 | – | 16 | 0.06 | 0.125 | 0.5 | 4 | –
Nc1nc(/C(=N/OC(C(=O)O)C2CCS(=O)(=O)CC2)C(=O)N[C@@H]2C(=O)N3C(C(=O)O)=C(CSCCNC(=O)c4ccc(O)c(O)c4Cl)CS[C@H]23)cs1.O=C(O)C(F)(F)F (stereo partly specified) | 1 | 4 | – | – | 2 | 2 | 2 | 2 | 4 | 0.5 | 0.5 | 1 | – | 2 | – | 2 | – | 1 | 2 | – | –
Nc1nc(/C(=N/OC(C(=O)O)C2CCOCC2)C(=O)N[C@@H]2C(=O)N3C(C(=O)O)=C(CSCCNC(=O)c4ccc(O)c(O)c4Cl)CS[C@H]23)cs1.O=C(O)C(F)(F)F (stereo partly specified) | 8 | 16 | – | – | 16 | 16 | 16 | 32 | 32 | 4 | 16 | 16 | – | 8 | – | 32 | 4 | 1 | 8 | – | –
Nc1nc(/C(=N/OC(C(=O)O)C2CCSCC2)C(=O)N[C@@H]2C(=O)N3C(C(=O)O)=C(CSCCNC(=O)c4ccc(O)c(O)c4Cl)CS[C@H]23)cs1.O=C(O)C(F)(F)F (stereo partly specified) | 0.125 | 4 | – | – | 2 | 4 | 4 | 8 | 8 | 0.25 | 8 | 0.5 | – | 4 | – | 4 | 0.25 | 1 | 0.5 | – | –
